According to patent US4876346A, “Quinoline compounds” (American Home Products Corporation, priority 1986, dated 1989):
pIC50: −log10 of the molar value. Counter-ions that a name gives are not always drawn. Like-named read-outs stand apart in the source and are kept apart here.

Key:
[1] = test system: ovalbumin induced bronchospasm; experiment: In vivo inhibition of ovalbumin induced bronchospasm in sensitized guinea pigs mediated by endogenous mediators (Example 12); set-up: species or system guinea pig (male Hartley); details: Cavia porcellus, 10 minutes before ovalbumin challenge, guinea pig, read-out: % Inhibition of Max AUC
Procedure: The assay of this Example measures the in vivo ability of the compounds of the invention to inhibit the bronchospasm induced in guinea pigs by endogenous mediators of the bronchoconstriction.
(§1) The assay is carried out as follows:
Male Hartley strain guinea pigs weighing 250-350 g are sensitized to chicken ovalbumin (OA) (10 mg i.p.) on days 1 and 3 and used starting on day 26. The animals are anesthetized with pentobarbital sodium (50 mg/kg, i.p.), bilateral vagotomy is performed, and the jugular vein is cannulated for injection of drugs and the carotid artery for monitoring blood pressure. The trachea is cannulated for artificial ventilation by miniature Starling pump and for indirect measurement of respiratory volume changes as described, infra. Succinylcholine (2 mg/kg, i.v.) is administered to arrest spontaneous respiration. A cyclooxygenase inhibitor, indomethacin (10 mg/kg in tris buffer, i.v. at 9 min.) is administered to shunt arachidonic metabolism to lipoxygenase pathways. One minute later, chlorpheniramine (1.0 mg/kg in saline, i.v.) is given to attenuate the histaminic component of anaphylactic bronchoconstriction. Test drugs (dissolved in propylene glycol, polyethylene glycol or saline) are administered either intraduodenally or by aerosol at 2 or 10 minutes before antigen challenge. Anaphylactic bronchoconstriction is induced by administration by breaths of aerosolized OA (1%) or by intravenous administration of 0.1-0.3 mg/kg OA in saline. Control animals receive solvent (2 ml/kg i.d. or appropriate aerosol) in place of drug.
Respiratory volume changes are determined by a calibrated piston whose travel is recorded, via a linear transducer, on a Beckman Dynograph recorder. Maximal bronchoconstrictor volume is determined by clamping off the trachea at the end of the experiment. Overflow volumes at minutes 1, 3 and 5 are obtained from the recorded charts.
Area under the volume overflow curve (AUC) is estimated, using the overflow values at 1, 3 and 5 minutes, and expressed as a percentage of the maximal overflow AUC (equation 1): [formula] Drug effects are reported as percent inhibition of % max AUC values obtained from appropriate control animals (equation 2): [formula] Students t-test for unpaired data is used to determine statistical significance. Dose response curves are generated and ED50 doses are interpolated from the regression lines.
Results for compounds of the invention in this assay, using LTD4 for induction of bronchospasm, are given below: […]

[2] = test system: 5-HETE synthesis by rat glycogen elicited polymorphonuclear leukocytes; experiment: Inhibition of synthesis of 5-HETE by rat glycogen elicited polymorphonuclear leukocytes (Example 10); format: cell-based, rat (female Wistar); details: Leukocyte, [14C]5-HETE synthesis, rat PMN; for pIC50: read-out: 50% Inhibitory Concentration (IC50)
Procedure: as §1
Peritoneal PMN are obtained from female Wistar rats (150-250 g) that received an i.p. injection of 6% glycogen (10 ml). After 24 hours, rats are killed by CO2 asphyxiation and peritoneal cells are harvested by peritoneal lavage using Ca^++ and Mg^++ free Hanks' balanced salt solution (HBSS). The peritoneal exudate is centrifuged at 400 g for 10 minutes. After centrifugation, the lavaged fluid is removed and the cell pellet is […] in HBSS containing Ca^++ and Mg^++ and 10 mM L-cystein at a concentration of 2×10^7 cells/ml. To 1 ml portions of cell suspens, test drugs or vehicle are added and incubated at 37° C. for 10 minutes. Following this preincubation, the calcium ionophore (10 μM), A23187, is added together with 0.5 μCi [^14 C] arachidonic acid and further incubated for 10 minutes. The reaction is stopped by the addition of ice cold water (3 ml) and acidifying to pH 3.5. Lipoxygenase products are then extracted twice into diethyl ether. The pooled ether extracts are evaporated to dryness under nitrogen and the residue is redissolved in a small volume of methanol and spotted on aluminum backed pre-coated thin layer chromatographic plates. The samples are then co-chromatographed with authentic reference 5-HETE in the solvent system--hexane:ether:acetic acid (50:50:3). After chromatography, the areas associated with 5-HETE standard are identified by autoradiography, cut out and quantitated by liquid scintillation.
Results are expressed as % inhibition of [^14 C]5-HETE synthesis. [formula]

[3] = test system: LTD4 induced bronchoconstriction; experiment: In vivo inhibition of bronchospasm induced in guinea pigs by exogenously administered leukotrienes (Example 11); set-up: species or system guinea pig (male Hartley); details: 10 minutes before induction of bronchospasm (LTD4), guinea pig; for inhibition in vivo at 50 mg/kg / inhibition in vivo at 25 mg/kg: Cavia porcellus, read-out: % Inhibition of Max AUC

| Molecule | inhibition at 50 µM [2] [%] | inhibition in vivo at 50 mg/kg ([3]; 50 mg/kg intraduodenal) [%] | inhibition in vivo at 25 mg/kg ([3]; 25 mg/kg intraduodenal) [%] | other results |
| --- | --- | --- | --- | --- |
| CCN(CC)C(=O)N(C)C[C@H](O)c1cccc(OCc2ccc3ccccc3n2)c1 [Example 2B, (1R)-1-[3-[(2-Quinolinyl)methoxy]phenyl]-2-(N-methyl-N-diethylcarbamoyl)amino ethanol] |  |  |  | inhibition in vivo at 50 mg/kg ([1]; 50 mg/kg intraduodenal): 75.8% |
| CCN(CC)C(=O)N(C)C[C@@H](O)c1cccc(OCc2ccc3ccccc3n2)c1 [Example 2J, (1S)-1-[3-[(2-Quinolinyl)methoxy]phenyl]-2-(N-methyl-N-diethylcarbamoyl)amino ethanol] |  |  |  | inhibition in vivo at 25 mg/kg ([1]; 25 mg/kg intraduodenal): 81.2% |
| CCC(=O)N(C)C[C@H](O)c1cccc(OCc2nc3ccccc3n2C)c1 [Example 2C, (1R)-1-[3-[(1-Methyl-2-benzimidazoyl)methoxy]phenyl]-2-(N-methyl-N-propanoyl)amino ethanol] | < 50 | 63.9 |  | inhibition in vivo at 50 mg/kg ([1]; 50 mg/kg intraduodenal): 65.6% |
| C#CCN(C)C[C@H](O)c1cccc(OCc2ccc3ccccc3n2)c1 [Example 8, α-[[Methyl-(2-propynyl)amino]methyl]-3-(2-quinolinylmethoxy)benzene methanol] |  |  | 41.2 |  |
| CCN(CC)C(=O)N(CC)C[C@H](O)c1cccc(OCc2ccc3ccccc3n2)c1 [Example 2G, (1R)-1-[3-[(2-Quinolinyl)methoxy]phenyl]-2-(N-ethyl-N-diethylcarbamoyl)amino ethanol] | > 50 | 65.1 |  |  |
| CCOC(=O)CC(=O)NCC(O)c1cccc(OCc2ccc3ccccc3n2)c1 (racemic) [Example 7C, 3-[[2-Hydroxy-2-[3-(2-quinolinylmethoxy)phenyl]ethyl]amino]-3-oxopropanoicacid, ethyl ester] |  |  | 24.9 |  |
| CCNC(=O)O[C@@H](CN(C)C(=O)NCC)c1cccc(OCc2ccc3ccccc3n2)c1 [Example 5, Ethylcarbamic acid (1R)-2-[[(ethylamino)carbonyl]methylamino]-1-[3-(2-quinolinylmethoxy)phenyl]ethyl ester, hydrochloride] |  | 54.2 |  | inhibition in vivo at 50 mg/kg ([3]; po, 50 mg/kg peroral): 18.6%; inhibition in vivo at 50 mg/kg ([1]; 50 mg/kg intraduodenal): 80.2% |
| O=C(NCC(O)c1cccc(OCc2ccc3ccccc3n2)c1)c1cccs1 (stereo not shown) [Example 7B, N-[2-Hydroxy-2-[3-(2-quinolinylmethoxy)phenyl]ethyl]-2-thiophene carboxamide] |  |  | 81.9 |  |
| O=C(NCC(O)c1cccc(OCc2ccc3ccccc3n2)c1)c1ccccn1 (stereo not shown) [Example 6, N-[2-Hydroxy-2-[3-(2-quinolinylmethoxy)phenyl]ethyl]-2-pyridine carboxamide] |  |  | 19.8 |  |
| COC(=O)[C@@H]1CCCN1C(=O)N(C)C[C@H](O)c1cccc(OCc2ccc3ccccc3n2)c1 [Example 2I, (S)-1-[[[(R)-2-Hydroxy-2-[3-(2-quinolinylmethoxy)phenyl]ethyl]methylamino]carbonyl]-2-pyrrolidine carboxylic acid, methyl ester, hydrochloride] |  | 71.2 |  | inhibition in vivo at 50 mg/kg ([1]; 50 mg/kg intraduodenal): 22.5% |
| CCN(CC)C(=O)N(C)C[C@H](O)c1cccc(OCc2nc3ccccc3s2)c1 [Example 1, (1R)-1-[3-[(2-Benzthiazoyl)-methoxy]phenyl]-2-(N-methyl-N-diethylcarbamoyl)amino ethanol] | > 50 | 59.2 |  | pIC50 [2]: 4.39 |
| O=S(=O)(NCC(O)c1cccc(OCc2ccc3ccccc3n2)c1)C(F)(F)F (stereo not shown) [Example 9, 1,1,1-Trifluoro-N-[2-hydroxy-2-[3-(2-quinolinylmethoxy)phenyl]ethyl]methanesulfonamide] |  |  | 84.8 | inhibition in vivo at 25 mg/kg ([3]; po, 25 mg/kg peroral): 75.6% |
| CN(C[C@H](O)c1cccc(OCc2ccc3ccccc3n2)c1)C(=O)N(c1ccccc1)c1ccccc1 [Example 2E, (1R)-1-[3-[(2-Quinolinyl)methoxy]phenyl]-2-(N-methyl-N-diphenylcarbamoyl)amino ethanol, hydrochloride] | > 50 | 21 |  |  |
| CN(C[C@H](O)c1cccc(OCc2ccc3ccccc3n2)c1)C(=O)c1ccncc1 [Example 2D, (1R)-1-[3-[(2-Quinolinyl)methoxy]phenyl]-2-[N-methyl-N-(4-pyridinoyl)]amino ethanol] | < 50 | 43.9 |  |  |
| CN(C)C(=O)N(C)C[C@H](O)c1cccc(OCc2ccc3ccccc3n2)c1 [Example 2F, (1R)-1-[3-[(2-Quinolinyl)methoxy]phenyl]-2-(N-methyl-N-dimethylcarbamoyl)amino ethanol] | > 50 | 92.6 |  |  |
| CCOC(=O)NCC(O)c1cccc(OCc2ccc3ccccc3n2)c1 (stereo not shown) [Example 2L, 1-[3-[(2-Quinolinyl)methoxy]phenyl]-2-(N-ethylcarboxylate)amino ethanol] |  |  | 35.6 |  |
| CCN(CC)C(=O)N(C)C[C@H](O)c1cccc(OCc2nc3ccccc3n2C)c1 [Example 2A, (1R)-1-[3-[(1-Methyl-2-benzimidazoyl)methoxy]phenyl]-2-(N-methyl-N-diethylcarbamoyl)amino ethanol] | > 50 | 77.2 |  | pIC50 [2]: 4.79; inhibition in vivo at 50 mg/kg ([1]; 50 mg/kg intraduodenal): 83.4% |
| N-[2-Hydroxy-2-[3-(2-quinolinyl)phenyl]ethyl]benzamide [Example 7A] |  |  |  | % Inhibition of Max AUC ([3]; 25 mg/kg intraduodenal): 18.1% |
| CN(C)S(=O)(=O)N(C)C[C@H](O)c1cccc(OCc2ccc3ccccc3n2)c1 [Example 2H, (1R)-1-[3-[(2-Quinolinyl)methoxy]phenyl]-2-(N-methyl-N-dimethylsulfamoyl)amino ethanol] |  | 56 |  | inhibition in vivo at 50 mg/kg ([3]; po, 50 mg/kg peroral): 25.4%; inhibition in vivo at 50 mg/kg ([1]; 50 mg/kg intraduodenal): 2.5% |
| CCOC(=O)N(C)C[C@H](O)c1cccc(OCc2ccc3ccccc3n2)c1 [Example 2K, (1R)-1-[3-[(2-Quinolinyl)methoxy]phenyl]-2-(N-methyl-N-ethylcarboxylate)amino ethanol] |  | 70.6 |  |  |
| CCNC(=O)N(C)C[C@H](O)c1cccc(OCc2ccc3ccccc3n2)c1 [Example 3] |  | 81.7 | 94.9 | inhibition in vivo at 50 mg/kg ([1]; po, 50 mg/kg peroral): 46.4% |
